Measured values from the NIST ThermoML archive (doi:10.1021/je400885z).
“And” between values parts separate entries of the source, which are not always exact repeats. Equal values may be shown once. ± gives the expanded uncertainty stated by the source.

Conditions: Liquid

Compound	vapor or sublimation pressure (373.15 K)	vapor or sublimation pressure (423.15 K)	also measured
COCC(C)O (stereo unspecified) [1-methoxy-2-propanol]	50.45 ± 1.2 kPa and 48.26 ± 1.2 kPa and 48.55 ± 1.2 kPa	232.13 ± 3 kPa [middle of 4 runs]	vapor or sublimation pressure (473.15 K): 739.81 ± 9.4 kPa
NCCO [2-aminoethan-1-ol]	6.16 ± 1 kPa and 6.17 ± 1 kPa and 6.64 ± 1 kPa	50.62 ± 1.2 kPa and 52.71 ± 1.2 kPa and 51.97 ± 1.2 kPa	
O=Cc1ccco1 [2-furaldehyde]	14.62 ± 1 kPa and 14.65 ± 1 kPa	77.51 ± 1.4 kPa and 76.13 ± 1.4 kPa	
CC(C)(C)O [2-methylpropan-2-ol]	192.46 ± 2.5 kPa and 191.18 ± 2.5 kPa	818.16 ± 10 kPa and 816.37 ± 10 kPa	
C=CCO [2-propenol]	113.1 ± 1.7 kPa and 109.94 ± 1.7 kPa and 109.95 ± 1.7 kPa	520.67 ± 6.5 kPa and 518.64 ± 6.5 kPa and 518.11 ± 6.5 kPa	
CCCCO [butan-1-ol]			vapor or sublimation pressure (333.15 K): 8.39 ± 1 kPa; vapor or sublimation pressure (393.15 K): 110.26 ± 1.6 kPa
CCCCOC(C)=O [butyl ethanoate]	44.71 ± 1.2 kPa and 42.55 ± 1.1 kPa	195.63 ± 2.5 kPa and 188.81 ± 2.4 kPa and 191.33 ± 2.5 kPa	vapor or sublimation pressure (473.15 K): 583.23 ± 7.3 kPa
O=C=O [carbon dioxide]			vapor or sublimation pressure (248.15 K): 1672.6 ± 21 kPa; vapor or sublimation pressure (273.15 K): 3485.1 ± 43 kPa
S=C=S [carbon disulfide]			vapor or sublimation pressure (248.15 K): 4.5 ± 1 kPa; vapor or sublimation pressure (273.15 K): 17.3 ± 1 kPa
O=C=S [carbonyl sulfide]			vapor or sublimation pressure (248.15 K): 282.15 ± 3.6 kPa and 287.13 ± 3.7 kPa; vapor or sublimation pressure (273.15 K): 638.23 ± 8 kPa and 651.42 ± 8.2 kPa
CCOC(C)=O [ethyl acetate]	202.9 ± 2.6 kPa	687.53 ± 8.6 kPa	
CCCCC [pentane]			vapor or sublimation pressure (333.15 K): 215.21 ± 2.8 kPa; vapor or sublimation pressure (393.15 K): 917.75 ± 11 kPa
